Measurements taken from patent publication US5817840A, “Water soluble taxol derivatives” (The Scripps Research Institute, priority 1997, dated 1998).
pIC50: −log10 of the molar value. Like-named read-outs stand apart in the source and are kept apart here.

Legend:
[1] = test system: 786-0 (human perirenal cell adenocarci); assay: Cytotoxicity, Example 8; format: cell-based
Description: (§1) Tumor or normal cells were cultured in 96-well plates with the test compound in 200 μl of RPMI supplemented with 10% fetal bovine serum (Hyclone, Salt Lake City, Utah) at 37° C. in a humidified atmosphere containing 5% CO2 in air for 72 hours. Sulforhodamine B dissolved in 1% acetic acid was added, and the plates were incubated for 30 minutes at ambient temperature, washed with 1% acetic acid, and blotted. To the air-dried plates were added 100 μl of […] unbuffered TRIS base (pH 10.5) with shaking. The optical densities of the plates were measured with a microplate reader (Molecular Devices Thermomax) at 540 nm. The concentration of compound required to reduce the absorbance to 50% of control samples was recorded as IC50.
(§2) NHDF: Normal human dermal fibroblast (available from Clouelics Corp., San Diego, Calif.); HLF-1: Normal human diploid lung; W1-38; Normal human diploid lung; CHO; Chinese hamster ovary; SK-MEL-28: Melanoma; CAPAN-1: Pancreatic carcinoma; H322: lung carcinoma; MCF-7; Breast carcinoma; BT-549; Human breast ductal carcinoma; OVCAR-3: Human ovarian carcinoma; HT-29: Human adenocarcinoma, colon; SIHA: Human squamous carcinoma crvx; 786-0: Human perirenal cell adenocarci; PC-3: Human prostate adenocarcinoma; HL-60: Human promyelomic leukemia; MOLT-4: Human T-cell leukemia. All cell lines except NHDF are available from the American Tissue Culture Collection, Rockville, Md.

[2] = test system: BT-549 (human breast ductal carcinoma); assay: Cytotoxicity, Example 8; format: cell-based
Description: as §1, §2

[3] = test system: CAPAN-1 (pancreatic carcinoma); assay: Cytotoxicity, Example 8; format: cell-based; settings: Homo sapiens
Description: as §1, §2

[4] = test system: CHO (Chinese hamster ovary); assay: Cytotoxicity, Example 8; format: cell-based; settings: Cricetulus griseus
Description: as §1, §2

[5] = test system: H322 (lung carcinoma); assay: Cytotoxicity, Example 8; format: cell-based
Description: as §1, §2

[6] = test system: HLF-1 (normal human diploid lung); assay: Cytotoxicity, Example 8; format: cell-based
Description: as §1, §2

[7] = test system: HT-29 (human adenocarcinoma, colon); assay: Cytotoxicity, Example 8; format: cell-based
Description: as §1, §2

[8] = test system: MCF-7 (breast carcinoma); assay: Cytotoxicity, Example 8; format: cell-based; settings: Homo sapiens
Description: as §1, §2

[9] = test system: NHDF (normal human dermal fibroblast); assay: Cytotoxicity, Example 8; format: cell-based
Description: as §1, §2

[10] = test system: OVCAR-3 (human ovarian carcinoma); assay: Cytotoxicity, Example 8; format: cell-based
Description: as §1, §2

[11] = test system: PC-3 (human prostate adenocarcinoma); assay: Cytotoxicity, Example 8; format: cell-based
Description: as §1, §2

[12] = test system: S1HA (human squamous carcinoma crvx); assay: Cytotoxicity, Example 8; format: cell-based
Description: as §1, §2

[13] = test system: SK-MEL-28 (melanoma); assay: Cytotoxicity, Example 8; format: cell-based; settings: Homo sapiens
Description: as §1, §2

[14] = test system: W1-38 (normal human diploid lung); assay: Cytotoxicity, Example 8; format: cell-based
Description: as §1, §2

[15] = test system: NHDF (normal human skin); assay: Cytotoxicity (sulphorhodamine B), normal cell line, Table 1B; format: cell-based; settings: 72 h
[16] = test system: RPMI-7666 (normal human PBLs); assay: as above; format: cell-based; settings: 72 h
[17] = test system: BALB/c 3T3 (normal mouse embryo); assay: as above; format: cell-based; settings: BALB/c3T3, 72 h
[18] = test system: CHO (Chinese hamster ovary); assay: as above; format: cell-based; settings: Cricetulus griseus, 72 h
[19] = test system: CHO (normal human mammary); assay: as above; format: cell-based; settings: Homo sapiens, 72 h
[20] = test system: SK (melanoma); assay: Cytotoxicity (sulphorhodamine B), cancer cell line, Table 1B; format: cell-based; settings: 72 h
[21] = test system: Capan-1 (pancreatic); assay: as above; format: cell-based; settings: Homo sapiens, CAPAN-1, 72 h
[22] = test system: H322 (lung carcinoma); assay: as above; format: cell-based; settings: NCI-H322, 72 h
[23] = test system: MCF-7 (breast carcinoma); assay: as above; format: cell-based; settings: Homo sapiens, MCF7, 72 h
[24] = test system: BT-549 (breast carcinoma); assay: as above; format: cell-based; settings: Homo sapiens, BT-549, 72 h
[25] = test system: OVCAR-3 (ovarian carcinoma); assay: as above; format: cell-based; settings: Homo sapiens, OVCAR-3, 72 h
[26] = test system: HT-29 (colon carcinoma); assay: as above; format: cell-based; settings: Homo sapiens, HT-29, 72 h
[27] = test system: SIHA (cervix carcinoma); assay: as above; format: cell-based; settings: Homo sapiens, SiHa, 72 h
[28] = test system: 786-0 (renal cell carcinoma); assay: as above; format: cell-based; settings: Homo sapiens, 786-0, 72 h
[29] = test system: PC-3 (prostate carcinoma); assay: as above; format: cell-based; settings: Homo sapiens, 72 h
[30] = test system: HL-60 (promyel carcinoma); assay: as above; format: cell-based; settings: Homo sapiens, HL-60, 72 h
[31] = test system: MOLT-4 (T-cell leukaemia); assay: as above; format: cell-based; settings: Homo sapiens, MOLT-4, 72 h
[32] = test system: L1210 (mouse leukaemia); assay: as above; format: cell-based; settings: L1210, 72 h
[33] = test system: UCLA-P-3 (lung carcinoma); assay: as above; format: cell-based; settings: Homo sapiens, UCLA P-3, 72 h
[34] = test system: broad spectrum of cell lines; assay: Cytotoxicity against a broad spectrum of cell lines (overall); settings: three-day exposure; compared with taxol
Description: The protaxols synthesized in this study were tested against a broad spectrum of cell lines ranging from the multiple-drug resistant ovarian (OVCAR-3) to lung (H-322) and leukemia (MOLT-4) cells in order to assess cytotoxicity, cell-type selectivity, and duration of action.
The cytotoxicities were determined using the sulphorhodamine B assay method (Skehan, P. et al. J. Nat. Canc. Inst. 82, 1107 (1990)).

SMILES: CC(=O)O[C@H]1C(=O)[C@@]2(C)[C@H]([C@H](OC(=O)c3ccccc3)[C@]3(O)C[C@H](OC(=O)[C@H](OC(=O)COCC(=O)O)[C@@H](NC(=O)c4ccccc4)c4ccccc4)C(C)=C1C3(C)C)[C@]1(OC(C)=O)CO[C@@H]1C[C@@H]2O [Compound 3]
- pIC50 ([1]; 786-0, 72 h): 6.82
- pIC50 ([2]; BT-549, 72 h): 4.29
- pIC50 ([3]; CAPAN-1, 72 h): 7.01
- pIC50 ([4]; 72 h): 4.00
- pIC50 ([5]; NCI-H322, 72 h): 3.69
- pIC50 ([6]; HLF1, 72 h): 4.23
- pIC50 ([7]; HT-29, 72 h): 8.00
- pIC50 ([8]; MCF7, 72 h): 3.45
- pIC50 ([9]; 72 h): 3.99
- pIC50 ([10]; OVCAR-3, 72 h): 7.01
- pIC50 ([11]; 72 h): 4.19
- pIC50 ([12]; 72 h): 2.95
- pIC50 ([13]; SK-MEL-28, 72 h): 4.00
- pIC50 ([14]; W138, 72 h): 4.28

SMILES: COC(=O)CS(=O)(=O)CC(=O)O[C@@H](C(=O)O[C@H]1C[C@@]2(O)[C@@H](OC(=O)c3ccccc3)[C@@H]3[C@]4(OC(C)=O)CO[C@@H]4C[C@H](O)[C@@]3(C)C(=O)[C@H](OC(C)=O)C(=C1C)C2(C)C)[C@@H](NC(=O)c1ccccc1)c1ccccc1 [Compound 6]
- pIC50 [15]: 6.00
- pIC50 [16]: 4.00
- pIC50 [17]: 5.00
- pIC50 [18]: 4.00
- pIC50 [19]: 4.00
- pIC50 [20]: 5.00
- pIC50 [21]: 7.00
- pIC50 [22]: 7.00
- pIC50 [23]: 5.00
- pIC50 [24]: 9.00
- pIC50 [25]: 6.00
- pIC50 [26]: 7.00
- pIC50 [27]: 4.00
- pIC50 [28]: 5.00
- pIC50 [29]: 6.00
- pIC50 [30]: 7.00
- pIC50 [31]: 7.00
- pIC50 [32]: 5.00
- pIC50 [33]: > 9.00
- cytotoxicity (in words) [34]: lower cytotoxicities

SMILES: CC(=O)O[C@H]1C(=O)[C@@]2(C)[C@H]([C@H](OC(=O)c3ccccc3)[C@]3(O)C[C@H](OC(=O)[C@H](OC(=O)C[S+]([O-])CC(=O)O)[C@@H](NC(=O)c4ccccc4)c4ccccc4)C(C)=C1C3(C)C)[C@]1(OC(C)=O)CO[C@@H]1C[C@@H]2O (stereo partly shown) [Example 3a]
- pIC50 ([1]; 786-0, 72 hours, read-out: IC50): 6.82
- pIC50 ([2]; BT-549, 72 hours, read-out: IC50): 7.01
- pIC50 ([3]; Capan-1, 72 hours, read-out: IC50): 6.06
- pIC50 ([4]; CHO, 72 hours, read-out: IC50): 4.00
- pIC50 ([5]; NCI-H322, H322, 72 hours, read-out: IC50): 5.08
- pIC50 ([6]; HLF1, HLF-1, 72 hours, read-out: IC50): 4.60
- pIC50 ([7]; HT-29, 72 hours, read-out: IC50): 7.01
- pIC50 ([8]; MCF7, MCF-7, 72 hours, read-out: IC50): 4.41
- pIC50 ([9]; 72 hours, read-out: IC50): 4.30
- pIC50 ([10]; OVCAR-3, 72 hours, read-out: IC50): 7.01
- pIC50 ([11]; PC-3, 72 hours, read-out: IC50): 4.30
- pIC50 ([12]; S1HA, 72 hours, read-out: IC50): 4.60
- pIC50 ([13]; SK-MEL-28, 72 hours, read-out: IC50): 4.00
- pIC50 ([14]; W138, W1-38, 72 hours, read-out: IC50): 4.60

SMILES: CC(=O)O[C@H]1C(=O)[C@@]2(C)[C@H]([C@H](OC(=O)c3ccccc3)[C@]3(O)C[C@H](OC(=O)[C@H](OC(=O)CSCC(=O)O)[C@@H](NC(=O)c4ccccc4)c4ccccc4)C(C)=C1C3(C)C)[C@]1(OC(C)=O)CO[C@@H]1C[C@@H]2O [Compound 4, 2'-thiodiglycolic taxol]
- pIC50 ([1]; 786-0, 72 h): 5.20
- pIC50 ([2]; BT-549, 72 h): 4.80
- pIC50 ([3]; CAPAN-1, 72 h): 6.72
- pIC50 ([4]; 72 h): 4.30
- pIC50 ([5]; NCI-H322, 72 h): 5.51
- pIC50 ([6]; HLF1, 72 h): 5.51
- pIC50 ([7]; HT-29, 72 h): 6.72
- pIC50 ([8]; MCF7, 72 h): 4.00
- pIC50 ([9]; 72 h): 4.30
- pIC50 ([10]; OVCAR-3, 72 h): 6.41
- pIC50 ([11]; 72 h): 4.00
- pIC50 ([12]; 72 h): 4.30
- pIC50 ([13]; SK-MEL-28, 72 h): 4.00
- pIC50 ([14]; W138, 72 h): 4.89

SMILES: CC(=O)O[C@H]1C(=O)[C@@]2(C)[C@H]([C@H](OC(=O)c3ccccc3)[C@]3(O)C[C@H](OC(=O)[C@H](OC(=O)OCCS(=O)(=O)c4ccc([N+](=O)[O-])cc4)[C@@H](NC(=O)c4ccccc4)c4ccccc4)C(C)=C1C3(C)C)[C@]1(OC(C)=O)CO[C@@H]1C[C@@H]2O [Compound 9]
- pIC50 [15]: 6.00
- pIC50 [16]: 4.00
- pIC50 [17]: 5.00
- pIC50 [18]: 4.00
- pIC50 [19]: 4.00
- pIC50 [20]: 5.00
- pIC50 [21]: 6.00
- pIC50 [22]: 6.00
- pIC50 [23]: 5.00
- pIC50 [24]: 7.00
- pIC50 [25]: 6.00
- pIC50 [26]: 7.00
- pIC50 [27]: 5.00
- pIC50 [28]: 6.00
- pIC50 [29]: 6.00
- pIC50 [30]: 7.00
- pIC50 [31]: 9.00
- pIC50 [32]: 6.00
- pIC50 [33]: > 9.00
- cytotoxicity (in words) [34]: lower cytotoxicities
